Data as given in patent US20040248915A1 (priority 2003, published 2004).
Where “and” joins values, the source holds several entries; their conditions need not be identical. Identical values can stand only once. Like-named read-outs stand apart in the source and are kept apart here.

Key:
[1] = rats, 10 mg/kg injection; cited from earlier work
[2] = human, in vivo
[3] = system: relapsed acute myeloid leukemia (AML); assay: Phase I continuous infusion in relapsed AML: toxicity and antileukemic activity
[4] = system: HT-29 human colorectal carcinoma cell line; assay: MTT colometric assay; assay type: cell-based; conditions: for GI50: Homo sapiens
Method: Two different methods were used, the MTT colometric assay and the clonogenic assay. a)MTT colometric assay: HT-29 cells were plated at 2.5×10^3 cells/well in a 96-well tissue culture plate and allowed to attach overnight. […] After the incubation period with the drug, cells were washed and fresh drug-free medium added. On day 3, cellular proliferation was evaluated by the tetrazolium dye assay.

nucleoside transporters = conditions: membrane permeation not mediated by nucleoside transporters; cited from earlier work
in vivo [5] = conditions: female, mouse
Method: Antitumor efficacy studies: In vivo efficacy studies were conducted using the HT-29 human colorectal cancer cells grown as xenografts in nude mice. Female athymic CD-1(nu/nu) mice were injected s.c. with 2×10^6 human colon HT-29 tumor cells. Tumor bearing animals were randomised (10 to 15 per group) and treatment started when tumor volumes reached 80 to 120 mm^3 (days 6 to 9; depending on the study). Tumor measurements, taken by callipers twice weekly, were converted to tumor volumes (in mm^3) using the standard formula, [width (mm)]^2×length (mm)×0.52. […] The pumps were implanted s.c. under sterile conditions at the site opposite to the tumor. These pumps (internal volume, 200 μl) continuously deliver test agent at a rate of 1 μl/h for 200 h (8.3 days total). Pumps were removed after 1, 3, 5 or 6 days, thus insuring continuous delivery of test agent over the course of the experiment. […] To monitor the drug-associated toxicity, mice were weighed at least twice a week and daily inspected for observable clinical signs. Statistical analysis was performed by ANOVA (ANalysis Of VAriance) or by Student's t test. Differences were considered to be significant at P<0.05.

[6] = cited from earlier work; for recommended doses: DLT neutropenia and skin rash
advanced solid tumors = assay: Phase I continuous infusion in advanced solid tumors: toxicity; assay type: in vivo, human
Method: This is a dose and infusion length finding study to achieve a minimum steady-state plasma concentration of 21 ng/mL (0.1 μM) for 72-120 hr. The starting dose of 3 mg/m^2/d was determined from PK simulation modeling using data obtained from Phase I studies (30-minute infusions). The starting infusion duration was 48 hr with escalation to 72 hr, 96 hr and 120 hr in cohorts of 3-6 patients.
In the results evaluated to date, 12 adults with refractory solid tumors have been treated. The first cohort (4 patients) received drug for 48 h (total dose 6 mg/m^2) with no DLT. The second cohort of patients was treated for 72 hr (total 9 mg/m^2). […] The 2 patients with DLT had the highest plasma concentrations. Enrollment is ongoing at 2.25 mg/m^2/d for 96 h (total 9 mg/m^2).

[7] = parameters: species or system mice; conditions: athymic CD-1 (nu/nu) nude, mouse, in vivo
Method: Blood was centrifuged at 10,000 g for 10 minutes and plasma was collected and frozen at −20° C. until further analysis. An aliquot of mouse plasma (100 μl) was precipitated with 300 μl of acetonitrile containing 3TC® (Shire BioChem) as internal standard. After centrifugation at 3,000 ×g for 5 minutes, 300 μl of supernatant was collected and evaporated to dryness under a gentle stream of nitrogen. The residue was then reconstituted with 100 μl of deionized water. […] The chromatography was achieved on a Luna C18 column (150×2 mm, 5 μm, Phenomenix, Torrance, Calif.) with a flow rate of 0.25 ml/min. The aqueous mobile phase, consisting of 10 mM ammonium acetate buffer, pH6.8, was held for 5 minutes and followed by a linear gradient of 0-50% acetonitrile over 8 minutes. Sample analysis was performed on a LC/MS/MS (TSQ7000, Thermo Finnigan, San Jose, Calif.) equipped with electrospray source.

[8] = system: HT-29 human colorectal cancer cells grown as xenografts in nude mice; assay: Antitumor efficacy studies in human xenografts; assay type: in vivo; conditions: for day from which tumor regressions were observed: 6-day infusion; for inhibition of tumor growth: 53-63 mg/kg
Method: Antitumor efficacy studies: In vivo efficacy studies were conducted using the HT-29 human colorectal cancer cells grown as xenografts in nude mice. Female athymic CD-1(nu/nu) mice were injected s.c. with 2×10^6 human colon HT-29 tumor cells. Tumor bearing animals were randomised (10 to 15 per group) and treatment started when tumor volumes reached 80 to 120 mm^3 (days 6 to 9; depending on the study). Tumor measurements, taken by callipers twice weekly, were converted to tumor volumes (in mm^3) using the standard formula, [width (mm)]^2×length (mm)×0.52. […] The pumps were implanted s.c. under sterile conditions at the site opposite to the tumor. These pumps (internal volume, 200 μl) continuously deliver test agent at a rate of 1 μl/h for 200 h (8.3 days total). Pumps were removed after 1, 3, 5 or 6 days, thus insuring continuous delivery of test agent over the course of the experiment. […] Compound efficacy was assessed at the end of the study by percentage of T/C defined as the mean treated tumor volume/mean control tumor volume×100%, with a T/C of about 40% or less being indicative of antitumor activity (J. Plowman et al., Human tumor xenograft models in NCI drug development in Teicher BA (ed) “Anticancer Drug Development Guide: Preclinical screening, clinical trials, and approval”. Humana Press Inc., Totowa, N.J. 1997;101-125). To monitor the drug-associated toxicity, mice were weighed at least twice a week and daily inspected for observable clinical signs. Statistical analysis was performed by ANOVA (ANalysis Of VAriance) or by Student's t test. Differences were considered to be significant at P<0.05.
Once we had established the optimum dose range (activity and well tolerated toxicity), a second study was performed to establish the time necessary to obtain optimum antitumor efficacy. This study was performed using 5, 10 and 20 mg/ml infused over 1, 3 and 5 days, when the tumors had reached 85 mm^3 (day 6).
Bolus administration was given by intravenous injection in the tail vein (10 ml/kg).

[9] = mice, bolus i.v. 20 mg/kg, cited from earlier work
[10] = bolus administration
cytidine deaminase (CDA) = cytidine deaminase (CDA) (Homo sapiens, UniProt P32320); conditions: cited from earlier work
in vivo [11] = conditions: nude, mouse, 10.6 mg/kg
[12] = system: HT-29 human colorectal carcinoma cell line; assay: Clonogenic assay; assay type: cell-based; conditions: HT-29 clonal growth; for IC50: Homo sapiens
Method: Two different methods were used, the MTT colometric assay and the clonogenic assay. b)Clonogenic assay: HT-29 cells were plated on 6-well flat-bottomed plates (200-400 cells) and allowed to attach overnight. […] After the incubation period with the drug, cells were washed and fresh drug-free medium added. On day 10, cells were exposed to Crystal violet stain.

[13] = system: relapsed acute myeloid leukemia (AML); conditions: in vivo

Chain of cytidine deaminase (CDA) (P32320 whole entry, species assumed): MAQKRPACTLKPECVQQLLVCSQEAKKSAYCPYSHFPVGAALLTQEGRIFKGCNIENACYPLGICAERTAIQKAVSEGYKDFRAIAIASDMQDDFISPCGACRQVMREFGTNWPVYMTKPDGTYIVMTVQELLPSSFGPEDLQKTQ

Nc1ccn([C@@H]2CO[C@H](CO)O2)c(=O)n1 [troxacitabine, (−)-β-L-Dioxolane-Cytidine]
Cmax [1]: ≥ 100 µM | drug exposure above or equal to 0.4 μM [2]: 120 h | interpatient variation in observed concentrations at each protocol time-point [2]: 2-to 3 fold | bone marrow aplasia, patients ([3]; AML patients who received 40.4-60.6 mg/m^2): 10 of 17 | higher cumulative doses achieved than by bolus administration ([3]; AML patients, continuous infusion): 25% | recommended dose ([3]; AML patients, continuous infusion administered over five days): 50.5 mg/m^2 | bone marrow hypoplasia/aplasia ([3]; first 7 AML patients, cumulative doses ≦30.3 mg/m^2): not seen | patients who achieved remissions ([3]; first 24 AML patients treated): 4 patients | potency of 72-hour versus 1 hr exposure ([4]; HT-29, MTT): 265 fold | GI50 ([4]; HT-29, 24 h, HT-29, 24 hr drug exposure): 5 µM | GI50 ([4]; HT-29, 72 h, HT-29, 72 hr drug exposure): 1 µM | GI50 ([4]; HT-29, HT-29, 1 hr drug exposure, read on day 3): 265 µM | GI50 ([4]; HT-29, HT-29, 4 hr drug exposure, read on day 3): 46 µM | major route of cellular uptake (nucleoside transporters): passive diffusion | MTD at 6 days (in vivo [5]): 45 to 50 mg/kg/day | drug exposure above or equal to 0.4 μM ([6]; bolus administration): 19.3 h | Cmax plasmatic ([6]; humans, 1.5 and 1.2 mg/m^2/d, first day): 110 to 140 ng/mL | time to steady state plasma concentration ([6]; humans, 5 half-lives (5×12 hrs)): 60 h | recommended doses ([6]; humans, 30-minute infusion every 21 days): 12.5 mg/m^2 and 10 mg/m^2 | recommended doses ([6]; humans, 30-minute infusion on 5 consecutive days every 4 weeks): 1.5 mg/m^2/d and 1.2 mg/m^2/d | plasma concentrations 5 minutes after drug administration ([6]; humans, administered clinical bolus doses): 0.6 to 4 µM | drug concentration less than 30 minutes after the end of infusion ([6]; humans, i.v. 10 mg/m^2): less than 1 μM | elimination t1/2 ([6]; humans, i.v. 10 mg/m^2): 13 h | time drug concentration remained above 0.1 μM ([6]; humans, i.v. 10 mg/m^2): approximately 12 hours | maximum tolerated dose in humans ([6]; i.v. administration): 10 mg/m^2 | Cmax ([6]; read-out: Cmax plasmatic, humans, 1.5 and 1.2 mg/m^2/d, first day): 0.52 to 0.66 µM | Cmax ([6]; read-out: plasma Cmax, humans, i.v. 10 mg/m^2): 4.1 µM | main non-hematological toxicities (advanced solid tumors; solid tumor patients, continuous infusion): mild to moderate skin rash | DLT (advanced solid tumors; solid tumors, 2 mg/m^2/d over 3 days (total 6 mg/m^2), three patients): no DLTs observed | DLT (advanced solid tumors; solid tumors, 3 mg/m^2/d for 48 h (total 6 mg/m^2), 4 patients): no DLT | DLT's, patients (advanced solid tumors; solid tumors, 3 mg/m^2/d for 72 hr (total 9 mg/m^2), Grade 4 neutropenia, fever, Grade 3 thrombocytopenia): 2 of the 5 | peak plasma concentrations with prolonged infusion [7]: 0.7 to 1.6 µM | T/C ([8]; 0.5 mg/ml pump, continuous infusion 6 days, day 31): 79% | T/C ([8]; 5 mg/ml pump, continuous infusion 6 days, day 31): 42% | antitumor activity of infusion compared with daily bolus ([8]; 10 mg/ml infusion over 6 days vs 10.6 mg/kg daily for 5 consecutive days): same antitumor activity | T/C ([8]; 10 mg/ml pump, continuous infusion 6 days, day 31): 22% | day from which tumor regressions were observed ([8]; 10 mg/ml): 29 days | tumor course ([8]; 20 mg/ml infused over 3 days): tumor stasis during the first week after treatment followed by tumor regrowth | T/C ([8]; 20 mg/ml infused over 3 days, end of study): 44% | tumor regressions ([8]; 20 mg/ml, 5-day infusion): Tumor regressions were observed from day 18 till day 28 followed by regrowth | T/C ([8]; 20 mg/ml, 5-day infusion, end of study): 27% | T/C ([8]; 50 mg/ml pump, continuous infusion 6 days, day 31): 11% | day from which tumor regressions were observed ([8]; 50 mg/ml): 21 days | inhibition of tumor growth ([8]; 3-day administration regimens (q7d×3 or 3-day infusions)): intermediate | inhibition of tumor growth ([8]; 5-6 day regimens (q1d×5 or 6-day infusions)): optimal | effect on tumor growth ([8]; one day infusion (24 h), 5, 10 and 20 mg/ml): no effect | antitumor activity ([8]; single bolus i.v. injection 63 mg/kg): low activity | Cmax ([9]; at 2 minutes, read-out: plasma Cmax): ≥ 100 µM | elimination t1/2 [9]: 0.267 h | plasma drug concentration by 60 minutes [9]: 4.5 µM | tolerated drug systemic concentrations, mice compared with humans [10]: over 20 fold | tolerated exposures, mice compared with humans [10]: over 6 fold | deamination by cytidine deaminase (CDA) (cytidine deaminase (CDA)): resistant to deamination | AUC at 5 days (in vivo [11]): 18800 ng·h/mL | change in potency when incubation time increased from 72 hr to 144 hr [12]: No further increase in potency | difference between IC50 values following 24- and 72 hr exposures [12]: 5 fold | IC50 ([12]; 24 hr exposure): 2.2 µM | IC50 ([12]; 72 hr exposure): 0.4 µM | hand-foot syndrome ([13]; human): Grade 1 and 2 hand-foot syndrome was also observed at all dose levels | dose-limiting Grade 3 stomatitis, patients ([13]; human, 6 days): 2 of 4 | dose-limiting stomatitis, patients [13]: Two of the four | skin rash [13]: generalized mild to moderate skin rash was observed at all dose levels | body weight loss (50 mg/ml, 3-5 days following initiation of treatment): ≤ 20% | maximum tolerated dose (MTD) (pump concentration, continuous infusion 6 days, nude mice): 50 mg/mL
